# Assay results published in US11987804B2, “Rapamycin resistant cells” (Seattle Children's Hospital, priority 2018, dated 2024).
# Experiments:
# [1] = system: primary human CD4+ T cells; test: Three-phase expansion protocol for μDISC edTreg (flow cytometry HA/FOXP3, cell counts); assay type: cell-based; details: for Day-3 flow cytometry Q4 / Day-10 flow cytometry Q3 / Day-10 flow cytometry Q4 / Day-15 flow cytometry Q4: Expansion Phase 0 additive 50 μg/mL IL-2, 10 nM rapamycin or 100 nM AP21967; for Day-3 flow cytometry Q1 / Day-10 flow cytometry Q1 / Day-15 flow cytometry Q1: Q1 = HA- FOXP3+; for Day-10 flow cytometry Q3 / Day-10 flow cytometry Q4 / Day-10 flow cytometry Q1: after Expansion Phase 1; for Day-15 flow cytometry Q4 / Day-15 flow cytometry Q3 / Day-15 flow cytometry Q1: after Expansion Phase 2
# Procedure: Recovered cells after Expansion Phase 0 were then transferred to the G-Rex flask and expanded in rapamycin (Expansion Phase 1; Days 3-10) to allow DISC edTreg enrichment, followed by addition of anti-CD3/CD28 beads (Expansion Phase 2; Days 10-15). The same AAV construct as shown in FIG. 13A was used in this experiment.
# After Expansion Phase 1 (Day 10), successfully edited cells were assessed by flow cytometry.
# CD4+ T cells [2] = test: Selective expansion of DISC/HA-FOXP3 edited Treg cells (flow cytometry for HA tag and FOXP3); assay type: cell-based, human; details: 50 ng/mL IL-2, 10 nM Rapamycin or 100 nM AP21967
# Excerpt: This Example illustrates the use of gene editing technology to knock-in a construct encoding the DISC and a promoter upstream of the endogenous FOXP3 (Forkhead box P3) locus in CD4+ T cells. […] In brief, a CRISPR/CAS9 ribonucleoprotein containing a guide RNA (gRNA) specific for a locus 5′ of exon 1 of FOXP3 was used in combination with an adeno-associated virus 6 (AAV6) donor template for FOXP3 gene editing The gRNA included a spacer having the sequence of SE ID NO:58. An ectopic MND promoter was introduced to drive DISC expression upstream of endogenous FOXP3. Expression of FOXP3 was designed to be in-frame with an N-terminal hemagglutinin (HA) epitope tag and nuclear localization sequence to generate a chimeric protein.
# CD4+ T cells [3] = test: Regulatory T cell marker phenotype of DISC-expressing edited Treg cells; assay type: cell-based, human; details: IL-2 50 ng/mL, rapamycin 10 nM or AP21967 100 nM
# μDISC GFP edTreg = test: In vivo expansion of μDISC GFP edTreg by rapamycin in humanized mouse model; design: species or system NOD-scid-IL2RgNULL (NSG) mice; details: for CD25+ GFP+ edTreg cells / CD25− GFP+ edTreg cells / CD127+ GFP+ edTreg cells / CD127− GFP+ edTreg cells: peripheral blood seven days post-transfer, rapamycin 0.1 mg/kg i.p. every other day, representative mouse
# Procedure: This Example describes experiments performed to test the capacity of edTreg cells expressing a μDISC construct to be expanded in vivo by rapamycin treatment. […] There are also conditions under which it is not desirable to expand Tregs, for example, in some cases of infection. Therefore, a useful feature of engineered cells provided herein having Treg features is the ability to exert control on expansion in vivo. Experiments were carried out to determine whether rapamycin could increase the number of μDISC edTregs in vivo using a humanized mouse model, which included human cells transferred into immune-incompetent NOD-scid-IL2RgNULL (NSG) mice. For these experiments, cells were edited using an AAV donor to drive cis-linked expression of the μDISC and endogenous FOXP3 from the MND promoter. This AAV donor template incorporates a GFP fusion protein at the N-terminal of endogenous FOXP3. The GFP-labeled FOXP3 fusion protein was used to facilitate the ability to detect gene-edited cells within the in vivo cell samples. […] The beads were then removed at Day −1. […] In the three-phase expansion protocol used in this experiment, the timing of Expansion Phase 0 flow cytometry was on Day 2. Recovered cells after Expansion Phase 0 were then transferred to the G-rex® flask and expanded in the presence of 10 nM rapamycin to select edited cells (Expansion Phase 1; Days 3-9) and to allow DISC edTreg enrichment, followed by flow cytometry and addition of anti-CD3/CD28 beads (Expansion Phase 2; Days 9-16; in the presence of 10 nM rapamycin). Flow cytometry was performed at Days 2, 9, 12, and 16 to monitor edited GFP+FOXP3+ cell expansion.
# NSG mice were pre-treated with rapamycin in order to saturate rapamycin binding proteins and provide rapamycin in serum.
# The μDISC GFP edTregs (or mock-edited cells) were then injected i.v. according to the following general procedure. Starting from Day −4, intraperitoneal (i.p.) injection of rapamycin 0.1 mg/kg was carried out every other day until Day 21. At Day 0, irradiation was performed and μDISC edTreg was i.v. injected. Peripheral blood samples were collected to either test for rapamycin levels (Day 2) or for flow cytometry (Days 7, 14, 21, and 28) to track the phenotype and number of transferred human T cells including GFP+ edTreg cells.
# To illustrates expansion of μDISC GFP edTreg in rapamycin treated vs. vehicle, flow cytometry results from peripheral blood seven days post-transfer into NSG are shown in Table 11 below (Gate: live, hCD45+, hCD4+), where human T cell markers and GFP+ are shown for a representative mouse from each cohort.
# [4] = Expansion Phase 0 additive, 10 nM rapamycin or 100 nM AP21967
# [5] = peripheral blood Day 7 and Day 14, rapamycin treated vs. vehicle
Compound,Day-3 flow cytometry Q4 [1],"Day-3 flow cytometry Q3 [1, 4]","Day-3 flow cytometry Q1 [1, 4]",Day-10 flow cytometry Q3 [1],Day-10 flow cytometry Q4 [1],"Day-10 flow cytometry Q1 [1, 4]",Day-15 flow cytometry Q4 [1],"Day-15 flow cytometry Q3 [1, 4]","Day-15 flow cytometry Q1 [1, 4]","percentage of double positive cells (expressing HA-FOXP3), DISC/HA-FOXP3 (CD4+ T cells [2]; 7 day post-treatment)","percentage of double positive cells (expressing HA-FOXP3), Mock (CD4+ T cells [2]; 7 day post-treatment)","percentage of double positive cells (expressing HA-FOXP3), DISC/HA-FOXP3 (CD4+ T cells [2]; 15 day post-treatment)",CD25+ FOXP3+ (CD4+ T cells [3]),CD25+ FOXP3− (CD4+ T cells [3]),CD 127+ FOXP3+ (CD4+ T cells [3]),CD 127+ FOXP3− (CD4+ T cells [3]),CTLA4+ FOXP3+ (CD4+ T cells [3]),CTLA4+ FOXP3− (CD4+ T cells [3]),ICOS+ FOXP3+ (CD4+ T cells [3]),ICOS+ FOXP3− (CD4+ T cells [3]),also measured
"CO[C@H]1[C@@H](O)[C@H](C)C[C@H](C)/C=C/C=C/C=C(\C)[C@@H](c2c[nH]c3c(C)cccc23)C[C@@H]2CC[C@@H](C)[C@@](O)(O2)C(=O)C(=O)N2CCCC[C@H]2C(=O)O[C@H]([C@H](C)C[C@@H]2CC[C@@H](O)[C@H](OC)C2)C[C@H](O)[C@H](C)/C=C(\C)[C@H]1O [AP21967, C-16-(S)-7-methylindolerapamycin]",86.00%,1.74%,0.39%,5.54%,13.3%,0.59%,10.7%,4.93%,0.33%,45.7%,0.033%,82.1%,22.5%,20.4%,1.63%,40.3%,13.6%,30.8%,36.8%,2.99%,"Day-3 flow cytometry Q2 ([1]; Q2 = HA+ FOXP3+ successfully edited cells, Expansion Phase 0 additive, 10 nM rapamycin or 100 nM AP21967): 11.90%; LAG3+ FOXP3+ (CD4+ T cells [3]): 8.81%; LAG3+ FOXP3− (CD4+ T cells [3]): 31.5%"
"CO[C@H]1C[C@@H]2CC[C@@H](C)[C@@](O)(O2)C(=O)C(=O)N2CCCC[C@H]2C(=O)O[C@H]([C@H](C)C[C@@H]2CC[C@@H](O)[C@H](OC)C2)CC(=O)[C@H](C)/C=C(\C)[C@@H](O)[C@@H](OC)C(=O)[C@H](C)C[C@H](C)/C=C/C=C/C=C/1C [Rapamycin, (3S,6R,7E,9R,10R,12R,14S,15E,17E,19E,21S,23S,26R,27R,34aS)-9,10,12,13,14,21,22,23,24,25,26,27,32,33,34,34a-hexadecahydro-9,27-dihydroxy-3-[(1R)-2-[(1S,3R,4R)-4-hydroxy-3-methoxycyclohexyl]-1-methylethyl]-10,21-dimethoxy-6,8,12,14,20,26-hexamethyl-23,27-epoxy-3H-pyrido[2,1-c][1,4] oxaazacyclohentriacontine-1,5,11,28,29 (4H,6H,31H)-pentone]",91.70%,1.48%,0.38%,9.31%,20.1%,0.44%,15.7%,7.56%,1.08%,47.6%,0.022%,85.6%,28.9%,14.5%,1.47%,40.8%,15.5%,29.4%,38.2%,2.38%,"LAG3+ FOXP3+ (CD4+ T cells [3]): 7.86%; LAG3+ FOXP3− (CD4+ T cells [3]): 33.3%; CD25+ GFP+ edTreg cells (μDISC GFP edTreg; No Radiation): 79.9%; CD25− GFP+ edTreg cells (μDISC GFP edTreg; No Radiation): 8.37%; CD127+ GFP+ edTreg cells (μDISC GFP edTreg; No Radiation): 0.57; CD127− GFP+ edTreg cells (μDISC GFP edTreg; No Radiation): 88.2; CD25+ GFP+ edTreg cells (μDISC GFP edTreg; Radiation (200 Gy), gate live, hCD45+, hCD4+): 82.6%; CD25− GFP+ edTreg cells (μDISC GFP edTreg; Radiation (200 Gy)): 5.52%; CD127− GFP+ edTreg cells (μDISC GFP edTreg; Radiation (200 Gy)): 87.6; CD127+ GFP+ edTreg cells (μDISC GFP edTreg; Radiation): 0.50; number of GFP+ cells in serum sample (μDISC GFP edTreg; [5]): higher; percentage of GFP+ cells (μDISC GFP edTreg; [5]): higher; levels of μDISC GFP edTreg in the peripheral blood (FIG. 17) (μDISC GFP edTreg; tracked weekly for four weeks, rapamycin treated vs. untreated mice): higher levels of μDISC GFP edTreg at each time point, peaking between two and three weeks after cell transfer"
